Where two headings read alike, the source gives them in different places. Marks after values point to notes of the source that are not given here.
Experiments:
soybean lipoxygenase 1-B = target: T1, soybean lipoxygenase 1-B (Glycine max, UniProt P08170); experiment: In vitro soybean lipoxygenase inhibition, linoleate as substrate; format: biochemical; settings: sodium linoleate 100 μM; after 7 min of incubation; pH 9.0, 28 °C
T1 construct: purchased Sigma (St. Louis, MO, U.S.A.)
T1 sequence (P08170 1-839): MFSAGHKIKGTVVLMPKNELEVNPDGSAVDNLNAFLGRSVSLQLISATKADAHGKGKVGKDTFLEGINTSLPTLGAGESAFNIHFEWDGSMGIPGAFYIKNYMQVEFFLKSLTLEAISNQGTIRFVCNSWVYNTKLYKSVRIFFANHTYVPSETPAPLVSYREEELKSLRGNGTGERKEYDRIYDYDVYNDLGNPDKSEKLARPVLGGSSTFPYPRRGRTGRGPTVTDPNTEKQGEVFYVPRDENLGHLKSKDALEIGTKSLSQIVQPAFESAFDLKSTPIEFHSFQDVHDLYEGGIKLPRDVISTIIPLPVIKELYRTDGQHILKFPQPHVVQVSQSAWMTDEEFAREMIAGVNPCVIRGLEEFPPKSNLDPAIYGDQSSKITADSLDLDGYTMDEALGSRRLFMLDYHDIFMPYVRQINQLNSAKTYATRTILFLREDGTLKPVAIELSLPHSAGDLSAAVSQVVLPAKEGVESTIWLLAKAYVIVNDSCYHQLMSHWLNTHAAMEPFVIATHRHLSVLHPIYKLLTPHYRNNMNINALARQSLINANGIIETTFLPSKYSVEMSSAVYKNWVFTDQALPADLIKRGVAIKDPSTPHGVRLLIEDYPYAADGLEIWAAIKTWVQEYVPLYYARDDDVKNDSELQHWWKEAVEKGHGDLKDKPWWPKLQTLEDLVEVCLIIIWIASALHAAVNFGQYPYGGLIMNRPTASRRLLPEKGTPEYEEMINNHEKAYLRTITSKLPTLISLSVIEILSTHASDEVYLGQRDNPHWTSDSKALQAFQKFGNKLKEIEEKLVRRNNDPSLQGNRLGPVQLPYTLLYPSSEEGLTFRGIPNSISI
Procedure: The reaction mixture contained the examined compounds (in absolute ethanol, 1–300 μM), soybean lipoxygenase (in saline, 250 u/mL) and sodium linoleate (100 μM), in Tris–HCl buffer, pH 9.0. The reaction was monitored for 7 min at 28 °C, recording the absorbance at 234 nm. […]

[1] = Interaction with the stable radical DPPH; settings: DPPH 200 μΜ, after 30 min
Procedure: (§1) The antioxidant activity of compounds was estimated by the inhibition of rat hepatic microsomal membrane lipid peroxidation, induced by Fe^+2/ascorbate, estimated as 2-thiobarbituric acid (TBA) reactive material, and by their interaction with the N-centred 1,1-diphenyl-2-picrylhydrazyl (DPPH) stable free radical. […] The percent interaction with DPPH and the IC50 values of compounds 7–9 on rat hepatic microsomal membrane lipid peroxidation, after 45 min of incubation is shown in Table 4.
Compounds (in absolute ethanol, final concentrations 25–200 μM) were added to an ethanolic solution of DPPH (final concentration 200 μM) at room temperature (22 ± 2 °C). Absorbance (517 nm) was recorded after 30 min.

[2] = tested on: rat hepatic microsomal membrane lipid peroxidation; experiment: Fe2+/ascorbate induced lipid peroxidation, TBA reactive material; format: biochemical; settings: for IC50: after 45 min of incubation, read-out: Inhibition of Lipid Peroxidation IC50
Procedure: as §1
The peroxidation of heat-inactivated (90°, 90 s) rat liver microsomal fraction was induced by ascorbic acid (0.2 mM) and ferrous sulphate (10 μΜ). The studied compounds, in dimethylsulfoxide, were added at concentrations 1 μM–1 mM. Aliquots were taken from the incubation mixture (37 °C) for 45 min. Lipid peroxidation was assessed spectrophotometrically (535/600 nm) as 2-thiobarbituric acid reactive material. All compounds and solvents were found not to interfere with the assay.

[3] = tested on: carrageenan-induced rat paw oedema; experiment: Carrageenan-induced rat paw oedema; format: in vivo, Wistar rats; settings: 0.15 mmol/kg i.p., oedema after 3.5 h, vs carrageenan-only controls; for inhibition in vivo at 150 µmol/kg: Rattus norvegicus, ip, read-out: % Oedema Reduction
Procedure: The carrageenan-induced paw oedema is a well-known and widely used model of acute inflammation. The response to carrageenan inflammation may be divided into three phases. In the first phase (after 1.5 h), histamine and serotonin are released, the second phase (1.5–2.5 h after carrageenan administration) is mediated by kinins, whereas, in the third phase, more than two hours post administration, neutrophil infiltration, prostaglandin production and release of pro-inflammatory cytokines are involved. In this work, oedema was measured 3.5 h post injection.
κ-Carrageenan and lipoxygenase type I-B from soybean were purchased from Sigma (St. Louis, MO, U.S.A.).
The tested compounds (in water with a few drops of Tween 80) were given i.p. (0.15 mmol/kg) to rats, just after the i.d. injection of 0.1 mL of an aqueous carrageenan solution (1% w/v) in the hind paw of rats. The produced oedema, after 3.5 h, was estimated as paw weight increase.

hyperlipidaemic rats = experiment: Triton WR1339 (tyloxapol) induced hyperlipidaemia in rats; format: in vivo, Wistar rats; settings: Rattus norvegicus, ip, 24 h, 150 μmol/kg i.p., tyloxapol 200 mg/kg i.p., plasma after 24 h
Text: The pleiotropic effects of statins, used as hypolipidaemic drugs, include antioxidant ability and direct increase of eNOS activity, in addition to inhibition of 3-hydroxy-3-methylglutaryl coenzyme A (HMG-CoA) reductase. […] The systemic administration of Triton-WR1339 (tyloxapol) to rats induces a biphasic elevation of plasma cholesterol, atherogenic VLDL cholesterol and LDL cholesterol, as well as triglyceride levels. […] Agents shown to be active in phase I are considered to interfere with cholesterol biosynthesis.
κ-Carrageenan and lipoxygenase type I-B from soybean were purchased from Sigma (St. Louis, MO, U.S.A.). For the in vivo experiments, Wistar rats (180–220 g, 3–4 months old) were kept in the Centre of the School of Veterinary Medicine (EL54 BIO42), Aristotelian University of Thessaloniki, which is registered by the official state veterinary authorities (presidential degree 56/2013, in harmonization with the European Directive 2010/63/EEC). The experimental protocols were approved by the Animal Ethics Committee of the Prefecture of Central Macedonia (no. 270079/2500).
Hyperlipidaemia was induced by the i.p. administration of Triton WR 1339 (200 mg/kg) to rats. […] Blood was taken from the aorta after 24 h, for the determination of plasma total cholesterol, LDL-cholesterol and triglyceride concentrations, using commercial kits.

[4] = In vitro nitrogen monoxide release (Griess reagent); settings: DMSO/water 7/3, overnight, cadmium
Procedure: Due to their poor aqueous solubility, compounds 1, 3-7 and 9 were dissolved in 7/3 (v/v) mixture of DMSO/water at various concentrations and incubated overnight at room temperature in the presence of cadmium. S-nitroso-N-acetylpenicillamine (SNAP) was dissolved either in DMSO/water 7/3 or in water and treated as above.
Aliquots were taken from each sample and added to an equal volume of N-naphthylaminoethylamine (0.2%) and sulfanilamide (2%) solution in 3 N hydrochloric acid (Griess reagent). Appropriate sodium nitrite solutions in the same DMSO/water mixture were used for the construction of the standard curve and values were identical to those obtained with aqueous solutions. Nitric oxide release was estimated spectrophotometrically (540 nm).

[5] = read-out: % Reduction LDL-C (LDL cholesterol)
[6] = read-out: % Reduction TC (total cholesterol)
[7] = read-out: % Reduction TG (triglycerides)

Row | Structure (SMILES) | IC50 (soybean lipoxygenase 1-B) [µM] | IC50 [2] [µM] | melting point [°C] | Percent Interaction with DPPH ([1]; compound 50 μΜ) [%] | Percent Interaction with DPPH ([1]; compound 100 μΜ) [%] | Percent Interaction with DPPH ([1]; compound 200 μΜ) [%] | % Oedema Reduction [3] | inhibition in vivo at 150 µmol/kg [3] [%] | inhibition in vivo at 150 µmol/kg (hyperlipidaemic rats; [5]) [%] | inhibition in vivo at 150 µmol/kg (hyperlipidaemic rats; [6]) [%] | inhibition in vivo at 150 µmol/kg (hyperlipidaemic rats; [7]) [%] | NO Release ([4]; compound 31.25 μM) [μΜ] | NO Release ([4]; compound 62.5 μM) [μΜ] | NO Release ([4]; compound 125 μM) [μΜ] | NO Release ([4]; compound 250 μM) [μΜ] | NO Release ([4]; compound 500 μM) [μΜ] | lag period in time course of lipid peroxidation ([2]; various concentrations, Figure 2)
1 | CC(C)(C)c1cc(/C=C/C(=O)OCCc2ccc([N+](=O)[O-])cc2)cc(C(C)(C)C)c1O [Compound 8, (E)-4-Nitrophenethyl 3-(3,5-di-tert-butyl-4-hydroxyphenyl)acrylate] | 10.5 | 150 | 156 to 157 | 23 | 57 | 88 | 51 ** % | 51 | – | – | – | – | – | – | – | – | –
2 | CC(C)(C)c1cc(/C=C/C(=O)OCCO[N+](=O)[O-])cc(C(C)(C)C)c1O [Compound 7, (E)-2-(Nitrooxy)ethyl 3-(3,5-di-tert-butyl-4-hydroxyphenyl)acrylate] | 44 | 41 | 80 | 21 | 49 | 87 | 55 ** % | 55 | 60.6 | 66 | 45.7 | 2 | 6.5 | 17 | 38 | 77 | –
3 | COc1ccc2c(c1)c(CC(=O)OCCO[N+](=O)[O-])c(C)n2C(=O)c1ccc(Cl)cc1 [Compound 3, 2-(Nitrooxy)ethyl 2-(1-(4-chlorobenzoyl)-5-methoxy-2-methyl-1H-indol-3-yl)acetate] | 107 | – | 83 to 84 | – | – | – | – | 29 | 62.3 | 71.7 | 31.8 | 5 | 13 | 28 | 58 | 102 | –

The next lines start with results.

Row | IC50 (soybean lipoxygenase 1-B) [µM] | IC50 [2] [µM] | melting point [°C] | Structure (SMILES) | Percent Interaction with DPPH ([1]; compound 50 μΜ) [%] | Percent Interaction with DPPH ([1]; compound 100 μΜ) [%] | Percent Interaction with DPPH ([1]; compound 200 μΜ) [%] | % Oedema Reduction [3] | inhibition in vivo at 150 µmol/kg [3] [%] | inhibition in vivo at 150 µmol/kg (hyperlipidaemic rats; [5]) [%] | inhibition in vivo at 150 µmol/kg (hyperlipidaemic rats; [6]) [%] | inhibition in vivo at 150 µmol/kg (hyperlipidaemic rats; [7]) [%] | NO Release ([4]; compound 31.25 μM) [μΜ] | NO Release ([4]; compound 62.5 μM) [μΜ] | NO Release ([4]; compound 125 μM) [μΜ] | NO Release ([4]; compound 250 μM) [μΜ] | NO Release ([4]; compound 500 μM) [μΜ] | lag period in time course of lipid peroxidation ([2]; various concentrations, Figure 2)
4 | > 300 | 25 | – | Cc1c(C)c2c(c(C)c1O)CCC(C)(C(=O)O)O2 (centres unmarked) [Trolox, 6-hydroxy-2,5,7,8-tetramethylchroman-2-carboxylic acid, reference compound] | 38 | 90 | 92 | – | – | – | – | – | – | – | – | – | – | –
5 | 120 | 2.3 | 95 to 97 | Cc1c(C)c2c(c(C)c1O)CCC(C)(C(=O)OCCO[N+](=O)[O-])O2 (racemic) [Compound 9, (±)-2-(Nitrooxy)ethyl 6-hydroxy-2,5,7,8-tetramethylchroman-2-carboxylate] | 55 | 90 | 92 | – | 57 | 65 | 55.4 | 30 | 3 | 10 | 23 | 49 | 93 | about 20 min

— article PMC6982741, “Design, Synthesis and Study of Nitrogen Monoxide Donors as Potent Hypolipidaemic and Anti-Inflammatory Agents” (Molecules, 2019)
